The values that follow come from patent US20250129104A1, “7H-PYRROLO[2,3-D]PYRIMIDINES AND PREPARATION AND USES THEREOF” (BioSplice Therapeutics, Inc., priority 2021, published 2025).

The target of this assay is recombinant DYRK1A kinase (Homo sapiens (Human), UniProt Q13627). As to the kind of experiment: DYRK1A kinase assay (Ser/Thr 18 peptide Z-lyte FRET assay). In kind it is biochemical. The following applies: DYRK1A kinase activity; 15 μM ATP, 1 h room temperature; method text calls the value IC50. The gist of the method:
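FRET Z-lyte read-out (coumarin/fluorescein ratio, % phosphorylation) after 1 h development; IC50 from non-linear curve fit. Reaction: 0.25 μg/mL recombinant human DYRK1A, Ser/Thr 18 peptide 4 μM, ATP 15 μM, compound in 11-point 1:3 series from 10 μM, 1 h, room temperature, duplicate wells.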
By EC50 is commonly meant the midpoint of the concentration-response curve. Consider `COc1nc(N[C@H]2CC[C@@](C)(O)CC2)nc2[nH]cc(-c3ccc4nccn4c3)c12` [Compound 2233, cis-4-((5-(Imidazo[1,2-a]pyridin-6-yl)-4-methoxy-7H-pyrrolo[2,3-d]pyrimidin-2-yl)amino)-1-methylcyclohexan-1-ol], for which the EC50 was found to be 1.6 nM. Regarding `C[C@]1(O)CC[C@@H](Nc2ncc3c(-c4ccn5nccc5c4)c[nH]c3n2)CC1` [Compound 2234, cis-1-Methyl-4-((5-(pyrazolo[1,5-a]pyridin-5-yl)-7H-pyrrolo[2,3-d]pyrimidin-2-yl)amino)cyclohexan-1-ol], the EC50 was 5.9 nM.

As for `C[C@]1(O)CC[C@@H](Nc2ncc3c(-c4ccc5nccn5c4)c[nH]c3n2)CC1` [Compound 2235, cis-4-((5-(Imidazo[1,2-a]pyridin-6-yl)-7H-pyrrolo[2,3-d]pyrimidin-2-yl)amino)-1-methylcyclohexan-1-ol], the EC50 came out at 7.4 nM. The result for `C[C@]1(O)CC[C@H](Nc2ncc3c(-c4ccc5nccn5c4)c[nH]c3n2)CC1` [Compound 2236, trans-4-((5-(Imidazo[1,2-a]pyridin-6-yl)-7H-pyrrolo[2,3-d]pyrimidin-2-yl)amino)-1-methylcyclohexan-1-ol] reads 15 nM; that for `C[C@]1(O)CC[C@H](Nc2ncc3c(-c4cc(F)c5nccn5c4)c[nH]c3n2)CC1` [Compound 2237, trans-4-((5-(8-Fluoroimidazo[1,2-a]pyridin-6-yl)-7H-pyrrolo[2,3-d]pyrimidin-2-yl)amino)-1-methylcyclohexan-1-ol], 7.9 nM; that for `Cc1nc2ccc(-c3c[nH]c4nc(N[C@H]5CC[C@@](C)(O)CC5)ncc34)nc2n1CC(F)F` [Compound 2239, cis-4-((5-(3-(2,2-Difluoroethyl)-2-methyl-3H-imidazo[4,5-b]pyridin-5-yl)-7H-pyrrolo[2,3-d]pyrimidin-2-yl)amino)-1-methylcyclohexan-1-ol], 6.9 nM. On to `COc1nc(NCC(C)(C)F)nc2[nH]cc(-c3ccc4nccn4c3)c12` [Compound 2240, N-(2-Fluoro-2-methylpropyl)-5-(imidazo[1,2-a]pyridin-6-yl)-4-methoxy-7H-pyrrolo[2,3-d]pyrimidin-2-amine], for which the EC50 came out at 7.9 nM. Regarding `COc1nc(NC2CCC(F)(F)CC2)nc2[nH]cc(-c3ccc4nccn4c3)c12` [Compound 2241, N-(4,4-Difluorocyclohexyl)-5-(imidazo[1,2-a]pyridin-6-yl)-4-methoxy-7H-pyrrolo[2,3-d]pyrimidin-2-amine], the EC50 stood at 26.9 nM.

On to `[2H]C([2H])([2H])O[C@H]1CC[C@@H](Nc2nc(OC)c3c(-c4ccc5nccn5c4)c[nH]c3n2)CC1` [Compound 2242, 5-(Imidazo[1,2-a]pyridin-6-yl)-4-methoxy-N-(cis-4-(methoxy-d3)cyclohexyl)-7H-pyrrolo[2,3-d]pyrimidin-2-amine], for which the EC50 amounted to 28.4 nM. As for `COc1nc(N[C@H]2CC[C@H](OC(F)F)CC2)nc2[nH]cc(-c3ccc4nccn4c3)c12` [Compound 2245, N-(trans-4-(Difluoromethoxy)cyclohexyl)-5-(imidazo[1,2-a]pyridin-6-yl)-4-methoxy-7H-pyrrolo[2,3-d]pyrimidin-2-amine], the concentration for a half-maximal effect (EC50) turned out to be 29.6 nM. On to `COc1nc(N[C@H]2CC[C@@H](OC(F)(F)F)CC2)nc2[nH]cc(-c3ccc4nccn4c3)c12` [Compound 2246, 5-(Imidazo[1,2-a]pyridin-6-yl)-4-methoxy-N-(cis-4-(trifluoromethoxy)cyclohexyl)-7H-pyrrolo[2,3-d]pyrimidin-2-amine], for which the EC50 came out at 132 nM. With `CCOc1nc(N[C@H]2CC[C@@](C)(O)CC2)nc2[nH]cc(-c3ccc4nccn4c3)c12` [Compound 2254, cis-4-((4-Ethoxy-5-(imidazo[1,2-a]pyridin-6-yl)-7H-pyrrolo[2,3-d]pyrimidin-2-yl)amino)-1-methylcyclohexan-1-ol], the EC50 was 25.8 nM. The figure for `COc1nc(NCC(C)(C)F)nc2[nH]cc(-c3cc(F)c4nccn4c3)c12` [Compound 2255, N-(2-Fluoro-2-methylpropyl)-5-(8-fluoroimidazo[1,2-a]pyridin-6-yl)-4-methoxy-7H-pyrrolo[2,3-d]pyrimidin-2-amine] is 19 nM.

`[2H]C([2H])([2H])O[C@H]1CC[C@@H](Nc2nc(OC)c3c(-c4cc(F)c5nccn5c4)c[nH]c3n2)CC1` [Compound 2256, 5-(8-Fluoroimidazo[1,2-a]pyridin-6-yl)-4-methoxy-N-(cis-4-(methoxy-d3)cyclohexyl)-7H-pyrrolo[2,3-d]pyrimidin-2-amine]: the EC50 is 15 nM. For the molecule `COc1nc(N[C@H]2CC[C@@H](OC(F)F)CC2)nc2[nH]cc(-c3cc(F)c4nccn4c3)c12` [Compound 2258, N-(cis-4-(Difluoromethoxy)cyclohexyl)-5-(8-fluoroimidazo[1,2-a]pyridin-6-yl)-4-methoxy-7H-pyrrolo[2,3-d]pyrimidin-2-amine], the EC50 worked out at 193 nM.

`COc1nc(N[C@H]2CC[C@@H](OC(F)(F)F)CC2)nc2[nH]cc(-c3cc(F)c4nccn4c3)c12` [Compound 2260, 5-(8-Fluoroimidazo[1,2-a]pyridin-6-yl)-4-methoxy-N-(cis-4-(trifluoromethoxy)cyclohexyl)-7H-pyrrolo[2,3-d]pyrimidin-2-amine]: the EC50 is 245 nM. Regarding `COc1nc(NC2CCC(F)(F)CC2)nc2[nH]cc(-c3cnc4nccn4c3)c12` [Compound 2268, N-(4,4-Difluorocyclohexyl)-5-(imidazo[1,2-a]pyrimidin-6-yl)-4-methoxy-7H-pyrrolo[2,3-d]pyrimidin-2-amine], the EC50 is 9.9 nM. Consider `COc1nc(NCC(C)(C)F)nc2[nH]cc(-c3cnc4nc(C)n(CC(F)F)c4c3)c12` [Compound 2269, 5-(1-(2,2-Difluoroethyl)-2-methyl-1H-imidazo[4,5-b]pyridin-6-yl)-N-(2-fluoro-2-methylpropyl)-4-methoxy-7H-pyrrolo[2,3-d]pyrimidin-2-amine], for which the concentration for a half-maximal effect (EC50) was found to be 77.2 nM. Turning to `COC[C@@H](C)Nc1nc(OC)c2c(-c3cnc4nc(C)n(CC(F)F)c4c3)c[nH]c2n1` [Compound 2271, (R)-5-(1-(2,2-Difluoroethyl)-2-methyl-1H-imidazo[4,5-b]pyridin-6-yl)-4-methoxy-N-(1-methoxypropan-2-yl)-7H-pyrrolo[2,3-d]pyrimidin-2-amine], the EC50 was found to be 112 nM. Consider `COc1nc(NC2CCC(F)(F)CC2)nc2[nH]cc(-c3cnc4nc(C)n(CC(F)F)c4c3)c12` [Compound 2272, N-(4,4-Difluorocyclohexyl)-5-(1-(2,2-difluoroethyl)-2-methyl-1H-imidazo[4,5-b]pyridin-6-yl)-4-methoxy-7H-pyrrolo[2,3-d]pyrimidin-2-amine], for which the half-maximal effective concentration (EC50) amounted to 62.2 nM. `COc1nc(NCC(C)(C)F)nc2[nH]cc(-c3ccc4nc(C)n(CC(F)F)c4n3)c12` [Compound 2276, 5-(3-(2,2-Difluoroethyl)-2-methyl-3H-imidazo[4,5-b]pyridin-5-yl)-N-(2-fluoro-2-methylpropyl)-4-methoxy-7H-pyrrolo[2,3-d]pyrimidin-2-amine]: the EC50 was determined as 256 nM.

For `COC[C@@H](C)Nc1nc(OC)c2c(-c3ccc4nc(C)n(CC(F)F)c4n3)c[nH]c2n1` [Compound 2278, (R)-5-(3-(2,2-Difluoroethyl)-2-methyl-3H-imidazo[4,5-b]pyridin-5-yl)-4-methoxy-N-(1-methoxypropan-2-yl)-7H-pyrrolo[2,3-d]pyrimidin-2-amine], the EC50 stood at 1000 nM.

Consider `COc1nc(NC2CCC(F)(F)CC2)nc2[nH]cc(-c3ccc4nc(C)n(CC(F)F)c4n3)c12` [Compound 2279, N-(4,4-Difluorocyclohexyl)-5-(3-(2,2-difluoroethyl)-2-methyl-3H-imidazo[4,5-b]pyridin-5-yl)-4-methoxy-7H-pyrrolo[2,3-d]pyrimidin-2-amine], for which the EC50 amounted to 250 nM. As for `COc1nc(N[C@H]2CC[C@@H](OC(F)F)CC2)nc2[nH]cc(-c3ccc4nc(C)n(CC(F)F)c4n3)c12` [Compound 2281, 5-(3-(2,2-Difluoroethyl)-2-methyl-3H-imidazo[4,5-b]pyridin-5-yl)-N-(cis-4-(difluoromethoxy)cyclohexyl)-4-methoxy-7H-pyrrolo[2,3-d]pyrimidin-2-amine], the EC50 came out at 269 nM.

For the molecule `COc1nc(NCC(C)(C)F)nc2[nH]cc(-c3ccc4nnn(C)c4c3)c12` [Compound 2283, N-(2-Fluoro-2-methylpropyl)-4-methoxy-5-(1-methyl-1H-benzo[d][1,2,3]triazol-6-yl)-7H-pyrrolo[2,3-d]pyrimidin-2-amine], the concentration giving a half-maximal response (EC50) came out at 47.4 nM. The result for `COc1nc(NC2CCC(F)(F)CC2)nc2[nH]cc(-c3ccc4nnn(C)c4c3)c12` [Compound 2284, N-(4,4-Difluorocyclohexyl)-4-methoxy-5-(1-methyl-1H-benzo[d][1,2,3]triazol-6-yl)-7H-pyrrolo[2,3-d]pyrimidin-2-amine] reads 83.9 nM; that for `[2H]C([2H])([2H])O[C@H]1CC[C@@H](Nc2nc(OC)c3c(-c4ccc5nnn(C)c5c4)c[nH]c3n2)CC1` [Compound 2285, 4-Methoxy-N-(cis-4-(methoxy-d3)cyclohexyl)-5-(1-methyl-1H-benzo[d][1,2,3]triazol-6-yl)-7H-pyrrolo[2,3-d]pyrimidin-2-amine], 200 nM. Turning to `COc1nc(N[C@H]2CC[C@@H](OC(F)F)CC2)nc2[nH]cc(-c3ccc4nnn(C)c4c3)c12` [Compound 2287, N-(cis-4-(Difluoromethoxy)cyclohexyl)-4-methoxy-5-(1-methyl-1H-benzo[d][1,2,3]triazol-6-yl)-7H-pyrrolo[2,3-d]pyrimidin-2-amine], the EC50 stood at 239 nM. Turning to `COc1nc(N[C@H]2CC[C@@H](OC(F)(F)F)CC2)nc2[nH]cc(-c3ccc4nnn(C)c4c3)c12` [Compound 2289, 4-Methoxy-5-(1-methyl-1H-benzo[d][1,2,3]triazol-6-yl)-N-(cis-4-(trifluoromethoxy)cyclohexyl)-7H-pyrrolo[2,3-d]pyrimidin-2-amine], the EC50 was 1480 nM.
